This data set in a line: Partition of cannabinoids between degummed cannabis oil miscella and water/ethanol/base extraction solvent in a fiber conduit contactor. The data set is classed as physicochemical. More on the design: scale not given here. The source says: Degummed miscella from Example 1A were used to investigate the extraction of acid cannabinoids into a water/ethanol solvent using a fiber conduit contactor. Bases tested included sodium bicarbonate (NaHCO3), sodium carbonate (Na2CO3), potassium bicarbonate (KHCO3), and potassium carbonate (K2CO3). The hardness difference between a sodium and potassium radii (smaller radii are harder, larger radii are softer) creates a variation in the property of the resulting soaps. Sodium salts give a so-called “harder” soap that is more likely to be rejected from the crude miscella. Switching from bicarbonate to carbonate has two effects: (1) higher ion count in solution, thereby increasing ionic strength/polarity; and (2) increasing the pH by approximately 1 pH unit for the same wt % solution. This increased polarity can be used to enforce selectivity of the desired compounds.
As shown in the results below, there are multiple options for extracting specific combinations of cannabinoids. The bicarbonate bases gave a preference to acid cannabinoids, whereas the stronger carbonate bases were able to increase the total mass transfer. These parameters can be used to control the outflow product streams. The partition coefficients for various combinations are summarized in Table 3 and can be used to determine the optimal extraction solvent for a target compound or goal.
In Table 3 above, the Examples are ordered by decreasing polarity from top to bottom. A lower number specifies a preference for extraction and a high number specifies a preference to remain in the neutral oil. Blank squares are where coefficients could not be calculated.

Where [1] appears, read: Base K2CO3, H2O/EtOH/Base (wt %) 68.3/29.1/2.5.
The mark [2] stands for this setting: Base K2CO3, H2O/EtOH/Base (wt %) 77.9/19.5/2.6.
Setting [3] is: Base K2CO3, H2O/EtOH/Base (wt %) 82.8/14.7/2.5.
The mark [4] stands for this setting: Base K2CO3, H2O/EtOH/Base (wt %) 87.5/10/2.5.
The mark [5] stands for this setting: Base Na2CO3, H2O/EtOH/Base (wt %) 68.4/29.1/2.5.
The mark [6] stands for this setting: Base Na2CO3, H2O/EtOH/Base (wt %) 73.2/24.2/2.6.
[7] abbreviates: Base Na2CO3, H2O/EtOH/Base (wt %) 77.6/19.9/2.5.
[8] abbreviates: Base Na2CO3, H2O/EtOH/Base (wt %) 82.9/14.5/2.6.
[9] abbreviates: Base Na2CO3, H2O/EtOH/Base (wt %) 87.8/9.7/2.6.
The mark [10] stands for this setting: Base NaHCO3, H2O/EtOH/Base (wt %) 67.8/29.7/2.4, lower = preference for extraction, higher = remains in neutral oil.
The mark [11] stands for this setting: Base NaHCO3, H2O/EtOH/Base (wt %) 72.9/24.6/2.5.
Where [12] appears, read: Base NaHCO3, H2O/EtOH/Base (wt %) 77.9/19.6/2.5.
Setting [13] is: Base NaHCO3, H2O/EtOH/Base (wt %) 81.2/16.3/2.5.
Setting [14] is: Base NaHCO3, H2O/EtOH/Base (wt %) 879./9.7/2.4.
Setting [15] is: Base K2CO3, H2O/EtOH/Base (wt %) 73.0/24.5/2.5.
Where [16] appears, read: Base KHCO3, H2O/EtOH/Base (wt %) 68.1/29.4/2.6.
[17] abbreviates: Base KHCO3, H2O/EtOH/Base (wt %) 73.1/24.3/2.6.
The mark [18] stands for this setting: Base KHCO3, H2O/EtOH/Base (wt %) 78.0/19.5/2.5.
The mark [19] stands for this setting: Base KHCO3, H2O/EtOH/Base (wt %) 82.7/14.8/2.5.
Setting [20] is: Base NaHCO3, H2O/EtOH/Base (wt %) 68.4/29.5/2.0.
[21] abbreviates: Base NaHCO3, H2O/EtOH/Base (wt %) 69.0/29.6/1.5.
Where [22] appears, read: Base NaHCO3, H2O/EtOH/Base (wt %) 69.9/29.9/0.25.

Regarding `CCCCCc1cc(O)c2c(c1)OC(C)(CCC=C(C)C)C=C2` (stereo not shown) [CBC, cannabichromene], the Partition coefficient runs as follows: under setting [1], 0.6; under setting [2], 0.23; under setting [3], 0.23; under setting [4], 0.16; under setting [5], −0.2; under setting [6], −0.16. The Partition coefficient runs as follows: under setting [7], −0.21; under setting [8], −0.14; under setting [9], 0.22; under setting [10], 0.54; under setting [11], 0.83; under setting [12], 1.42. The Partition coefficient under setting [13] was found to be 1.33 and the Partition coefficient under setting [14] amounted to 1.21.

As to `C=C(C)[C@@H]1CCC(C)=C[C@H]1c1c(O)cc(CCCCC)cc1O` [CBD, cannabidiol, reference compound], the Partition coefficient was found to be 0.55 under setting [1]; 0.87 under setting [15]; 0.19 under setting [2]; 0.19 under setting [3]; 0.1 under setting [4]; 0.6 under setting [16]. Besides, the Partition coefficient by setting is: under setting [17], 1.06; under setting [18], 1.59; under setting [19], 1.43; under setting [5], −0.87; under setting [6], −0.86; under setting [7], −0.94. The Partition coefficient reads like this: under setting [8], −0.9; under setting [9], −0.55; under setting [10], 0.48; under setting [20], 1.4; under setting [21], 1.86; under setting [11], 0.78. In addition, the Partition coefficient reads like this: under setting [12], 1.29; under setting [13], 1.25; under setting [14], 1.14.

In the case of `CCCCCc1cc2c(c(O)c1C(=O)O)[C@@H]1C=C(C)CC[C@H]1C(C)(C)O2` [THCA, tetrahydrocannabinolic acid], the Partition coefficient is 0.28 under setting [1]; −0.09 under setting [2]; −0.05 under setting [3]; 0.15 under setting [4]; 1.26 under setting [16]; 1.76 under setting [17]. For the same molecule, the Partition coefficient is, setting by setting: under setting [5], −0.18; under setting [6], −0.02; under setting [7], −0.02; under setting [8], 0.06; under setting [9], 0.41; under setting [10], 0.91. The Partition coefficient is, setting by setting: under setting [11], 1; under setting [12], 1.33; under setting [13], 1.16; under setting [14], 1.12.

For the molecule `CCCCCc1cc(O)c2c(c1)OC(C)(C)[C@@H]1CCC(C)=C[C@@H]21` [THC, tetrahydrocannabinol, reference compound], the Partition coefficient stood at 0.59 under setting [1]; 0.1 under setting [2]; 0.09 under setting [3]; 0.13 under setting [4]; 0.22 under setting [5]; 0.2 under setting [6]. The Partition coefficient by setting is: under setting [7], 0.1; under setting [8], 0.13; under setting [9], 0.47; under setting [10], 0.77; under setting [11], 1.03; under setting [12], 1.43. Further, the Partition coefficient is listed as 1.28 under setting [13] and 1.17 under setting [14].

For the molecule `CCCCCc1cc(O)c(C/C=C(\C)CCC=C(C)C)c(O)c1C(=O)O` [CBGA, cannabigerolic acid], the Partition coefficient was 0.15 under setting [1]; −0.19 under setting [2]; −0.15 under setting [3]; −0.1 under setting [4]; 0.33 under setting [16]; 0.72 under setting [17]. Besides, the Partition coefficient by setting is: under setting [18], 1.4; under setting [19], 1.61; under setting [5], −0.57; under setting [6], −0.47; under setting [7], −0.5; under setting [8], −0.44. The Partition coefficient under setting [9] was −0.14; the Partition coefficient under setting [10] worked out at 0.46; the Partition coefficient under setting [11] came to 0.76; the Partition coefficient under setting [12] stood at 1.2; the Partition coefficient under setting [13] came out at 1.19; the Partition coefficient under setting [14] amounted to 1.1.

On to `CCCCCc1cc(O)c(C/C=C(\C)CCC=C(C)C)c(O)c1` [CBG, cannabigerol], for which the Partition coefficient is recorded as 0.01 under setting [2]; 0.05 under setting [3]; −0.07 under setting [4]; 1.58 under setting [5]; 1.6 under setting [6]; 1.53 under setting [7]. Besides, the Partition coefficient under setting [8] was determined as 1.59; the Partition coefficient under setting [9] was 1.91; the Partition coefficient under setting [10] was determined as 0.46; the Partition coefficient under setting [22] was determined as 2.62; the Partition coefficient under setting [11] amounted to 0.76.

`C=C(C)[C@@H]1CCC(C)=C[C@H]1c1c(O)cc(CCCCC)c(C(=O)O)c1O` [CBDA, cannabidiolic acid]: the Partition coefficient runs as follows: under setting [1], 0.04; under setting [15], 0.45; under setting [2], −0.16; under setting [3], −0.08; under setting [4], 0; under setting [16], −1.02. For the same molecule, the Partition coefficient under setting [17] is −0.59; the Partition coefficient under setting [18] amounted to 0.04; the Partition coefficient under setting [19] turned out to be 0.21; the Partition coefficient (Base KHCO3, H2O/EtOH/Base (wt %) 86.3/11.3/2.5) was 0.19; the Partition coefficient under setting [5] was −2.37; the Partition coefficient under setting [6] is listed as −2.22. Also, the Partition coefficient by setting is: under setting [7], −2.22; under setting [8], −2.11; under setting [9], −1.75; under setting [10], 0.43; under setting [20], −0.19; under setting [21], 0.1. Also, the Partition coefficient worked out at 0.22 (Base NaHCO3, H2O/EtOH/Base (wt %) 69.2/29.8/1.0); 0.38 under setting [22]; 0.68 under setting [11]; 1.09 under setting [12]; 1.05 under setting [13]; 0.96 under setting [14].

As to `CCCCCc1cc2c(c(O)c1C(=O)O)C=CC(C)(CCC=C(C)C)O2` (stereo not shown) [CBCA, cannabichromenic acid], the Partition coefficient under setting [1] worked out at 0.22; the Partition coefficient under setting [2] is recorded as −0.29; the Partition coefficient under setting [3] is −0.25; the Partition coefficient under setting [4] is given as −0.2; the Partition coefficient under setting [16] amounted to 2.09; the Partition coefficient under setting [17] came out at 2.59. Besides, the Partition coefficient under setting [5] is reported as 0.93; the Partition coefficient under setting [6] worked out at 1.09; the Partition coefficient under setting [7] was 1.08; the Partition coefficient under setting [8] is listed as 1.15; the Partition coefficient under setting [9] stood at 1.48; the Partition coefficient under setting [10] was 0.57. The Partition coefficient by setting is: under setting [11], 1.14; under setting [13], 1.24; under setting [14], 1.17.

Source of the values: patent publication US11766628B2, “Purification and extraction of cannabinoids” (CHEMTOR, LP, priority 2020, dated 2023).
